Activity, IC50 and inhibition data for 15 compounds are collected here from ChEMBL document CHEMBL3769353, “Novel indole-based melatonin analogues: Evaluation of antioxidant activity and protective effect against amyloid β-induced damage” (Bioorg Med Chem, 2016).

Each structure is given as a SMILES string. Activity calls are given as the source filed them. The rule behind the calls is not given here.

Data set [1] relates to Erythrocyte. The data set is described as follows: Antioxidant activity in human erythrocytes assessed as ROS induced DCFH-DA oxidation at 10 uM by fluorescence analysis in presence of 10 uM of H2O2. The format is functional, cell-based.
Data set [2] relates to Erythrocyte. The data set is described as follows: Antioxidant activity in human erythrocytes assessed as ROS induced DCFH-DA oxidation at 100 uM by fluorescence analysis in presence of 10 uM of H2O2. The format is functional, cell-based.
Data set [3] can be described thus: Cytotoxicity against CHOK1 cells assessed as LDH leakage at 10 uM by spectrophotometric analysis. The format is cell-based, Cricetulus griseus. The settings on record: chinese hamster, cho-k1, 10 µM.
For the next data set, the system named is PC-12. Briefly: Neuroprotective activity against amyloid beta (25 to 35 amino acid residues) induced damage in rat PC12 cells assessed as cell viability preincubated for 3 hrs followed by addition of amyloid beta (25 to 35 amino acid residues) for 24 hrs by MTT assay. Type of data set: functional, cell-based. A general note: Tetrazolium dyes change colour on reduction, which living cells bring about.

Data set [4] can be described thus: Cytotoxicity against rat PC12 cells at 100 uM. The format is cell-based. The settings on record: pc-12, 100 µM.
The nature of data set [5]: Antioxidant activity in rat PC12 cells assessed as inhibition of amyloid beta (25 to 35 amino acid residues) induced ROS generation at 50 uM preincubated overnight followed by addition of amyloid beta (25 to 35 amino acid residues) measured after 120 mins by DCFH-DA-based fluorescence assay. The format is functional. Particulars: PC-12.

As for `Fc1ccc(-c2[nH]c3ccccc3c2/C=N/Nc2ccccc2Cl)cc1`, the outcome with Erythrocyte [1] and in the data set on Erythrocyte [2] was Active. The Activity entry in data set [3] and in data set [4] was “Non-toxic” each time. For the same compound, the IC50 (usually the concentration needed to halve the response being measured) in the data set with PC-12 was 38.3 µM. The inhibition (commonly the relative decrease from the control value, in per cent) at 50 µM in data set [5] was 44.1%.

Consider `COc1ccc2[nH]cc(CCNC(C)=O)c2c1` [MELATONIN], for which, in the data set with PC-12, the half-maximal inhibitory concentration (IC50) is > 100 µM. Besides, in data set [4], the Activity entry is “Non-toxic”. In addition, the inhibition at 50 µM in data set [5] stood at 49.9%.

Turning to `Fc1ccc(-c2[nH]c3ccccc3c2/C=N/Nc2ccc(F)cc2F)cc1`, the outcome in the data set with Erythrocyte [1] and in the data set with Erythrocyte [2] was Active. Besides, the Activity entry in data set [3] and in data set [4] was “Non-toxic” in each case. The IC50 in the data set on PC-12 was found to be 50.4 µM. For the same compound, in data set [5], the inhibition at 50 µM was found to be 74.9%.

For `COc1ccc(C(=O)N/N=C/c2c(-c3ccc(F)cc3)[nH]c3ccccc23)cc1`, the outcome with Erythrocyte [1] was inactive. Also, the Activity entry in data set [3] and in data set [4] was “Non-toxic” in each case. Further, the IC50 in the data set with PC-12 is > 100 µM. The inhibition at 50 µM in data set [5] was 19.2%.

Regarding `Fc1ccc(N/N=C/c2c(-c3ccc(F)cc3)[nH]c3ccccc23)cc1`, the outcome in the data set on Erythrocyte [1] was inactive. Further, the Activity entry in data set [3] and in data set [4] was “Non-toxic” in each case. For the same compound, in the data set on PC-12, the IC50 was > 100 µM. For the same compound, in data set [5], the inhibition at 50 µM is 74%.

As for `Fc1ccc(-c2[nH]c3ccccc3c2/C=N/Nc2cccc(Cl)c2)cc1`, the result in the data set on Erythrocyte [1] and in the data set on Erythrocyte [2] was Active. In addition, the Activity result in data set [3] and in data set [4] was “Non-toxic” each time. For the same compound, in the data set with PC-12, the IC50 was determined as 44 µM. Moreover, in data set [5], the inhibition at 50 µM was determined as 54.6%.

For `Fc1ccc(-c2[nH]c3ccccc3c2/C=N/Nc2ccccc2F)cc1`, the result with Erythrocyte [1] and in the data set on Erythrocyte [2] was Active. In addition, the Activity entry in data set [3] and in data set [4] was “Non-toxic” throughout. Further, the IC50 in the data set on PC-12 was 64.1 µM. For the same compound, in data set [5], the inhibition at 50 µM was found to be 88.1%.

For `Fc1ccc(-c2[nH]c3ccccc3c2/C=N/Nc2cccc(Br)c2)cc1`, the result in the data set with Erythrocyte [1] and in the data set on Erythrocyte [2] was Active. The Activity entry in data set [3] and in data set [4] was “Non-toxic” in each case.

For the compound `Fc1ccc(-c2[nH]c3ccccc3c2/C=N/Nc2cccc(F)c2)cc1`, the result in the data set with Erythrocyte [1] and in the data set on Erythrocyte [2] was Active. The Activity result in data set [3] and in data set [4] was “Non-toxic” in each case. For the same compound, the IC50 with PC-12 worked out at 54.4 µM. Besides, the inhibition at 50 µM in data set [5] amounted to 77.8%.

On to `Fc1ccc(-c2[nH]c3ccccc3c2/C=N/Nc2ccccc2Br)cc1`, for which the outcome in the data set with Erythrocyte [1] and in the data set with Erythrocyte [2] was Active. For the same compound, the Activity entry in data set [3] and in data set [4] was “Non-toxic” each time. In addition, the IC50 in the data set on PC-12 is 37 µM. Besides, the inhibition at 50 µM in data set [5] came out at 95.5%.

For the compound `Fc1ccc(-c2[nH]c3ccccc3c2/C=N/Nc2cc(Cl)ccc2Cl)cc1`, the outcome with Erythrocyte [1] and in the data set with Erythrocyte [2] was Active. Moreover, the Activity result in data set [3] and in data set [4] was “Non-toxic” in each case. The IC50 in the data set on PC-12 is 39 µM. Also, in data set [5], the inhibition at 50 µM came to 59.2%.

Turning to `Fc1ccc(-c2[nH]c3ccccc3c2/C=N/Nc2ccc(Cl)c(Cl)c2)cc1`, the outcome with Erythrocyte [1] and in the data set on Erythrocyte [2] was Active. The Activity entry in data set [3] and in data set [4] was “Non-toxic” throughout. Further, the IC50 with PC-12 stood at 65.7 µM. Also, in data set [5], the inhibition at 50 µM came out at 71.2%.

On to `Fc1ccc(-c2[nH]c3ccccc3c2/C=N/Nc2cc(F)cc(F)c2)cc1`, for which the result in the data set on Erythrocyte [1] and in the data set with Erythrocyte [2] was Active. Also, the Activity result in data set [3] and in data set [4] was “Non-toxic” throughout. For the same compound, in the data set on PC-12, the concentration for half-maximal inhibition (IC50) is 34.3 µM. Also, in data set [5], the inhibition at 50 µM stood at 86.4%.

As to `Fc1ccc(-c2[nH]c3ccccc3c2/C=N/Nc2ccc(Cl)cc2)cc1`, the outcome in the data set on Erythrocyte [1] and with Erythrocyte [2] was Active. Besides, the Activity result in data set [3] and in data set [4] was “Non-toxic” each time. Further, in the data set on PC-12, the IC50 was 73.9 µM. Besides, in data set [5], the inhibition at 50 µM was 49.7%.

On to `Fc1ccc(-c2[nH]c3ccccc3c2/C=N/Nc2ccc(Cl)cc2Cl)cc1`, for which the outcome in the data set with Erythrocyte [1] and in the data set on Erythrocyte [2] was Active. Besides, the Activity result in data set [3] and in data set [4] was “Non-toxic” in each case. Besides, in the data set with PC-12, the half-maximal inhibitory concentration (IC50) worked out at 51.5 µM. Further, the inhibition at 50 µM in data set [5] came to 83.8%.
